Values after ≈ are worked out from the molar mass of the structure shown. Like-named read-outs stand apart in the source and are kept apart here.
Legend:
Format in all cases: cell-based
E. coli ATCC 10596 = test: MIC by broth microdilution, E. coli; conditions: Escherichia coli, read-out: E. coli ATCC 10536 MIC
Protocol: (§1) Antibacterial susceptibility testing was performed in triplicate (biological) by measuring minimum inhibitory concentrations (MICs) by broth microdilution in 96-well flat bottom microtiter plates (ThermoFisher Scientific, New Zealand). S. uberis ATCC 19436, S. aureus ATCC 6538, or E. coli ATCC 10596 cells grown overnight were diluted to an OD600 of approximately 0.025, so that the final concentration of cells in the MIC assay was approximately 5×10^5 cfu/mL in media as follows: S. uberis; Todd Hewitt Broth (THB), S. aureus; Tryptic Soy Broth (TSB) and Cation Adjusted Muller Hinton Broth (CAMHB), and E. coli; Lysogeny Borth (LB) and CAMHB, before being dispensed into microtiter wells. As required additional sterile Zinc Sulphate (Heptahydrate) was supplemented into the media, so the final concentration was 50 μM. Test compounds were added to starting wells and two-fold serial dilutions were undertaken to generate a range of inhibitor concentrations at a final volume of 200 μl. Media and test compound-free (untreated) controls were included in each microtiter plate in triplicate. After 24 h incubation at 37° C. and 200 rpm, the OD600 of wells were read using a Varioskan Flash plate reader (ThermoFisher Scientific, New Zealand). The MIC was reported as the lowest concentration of the test compound for which no growth occurred, as determined by OD600 readings. The minimum bactericidal concentration (MBC) was determined using the Miles-Misra drop-plate method to measure the viability of cells in response to test compound challenge.

S. uberis ATCC 19436 = test: MIC by broth microdilution, S. uberis; conditions: Streptococcus uberis, read-out: S. uberis ATCC 19436 MIC
Protocol: as §1

S. aureus ATCC 6538 = test: MIC by broth microdilution, S. aureus; conditions: Staphylococcus aureus, read-out: S. aureus ATCC 6538 MIC
Protocol: as §1

[1] = ATCC 10536 / ATCC 10596, No Zinc
[2] = ATCC 10536 / ATCC 10596, Zinc (50 μM)

| Compound | MIC (E. coli ATCC 10596; [1]) | MIC (E. coli ATCC 10596; [2]) | MIC (S. uberis ATCC 19436; ATCC19436, No Zinc) | MIC (S. uberis ATCC 19436; ATCC19436, Zinc (50 μM)) | MIC (S. aureus ATCC 6538; ATCC6538, No Zinc) | MIC (S. aureus ATCC 6538; ATCC6538, Zinc (50 μM)) |
| --- | --- | --- | --- | --- | --- | --- |
| COc1ccc(S(=O)(=O)Nc2cccc3ccc(CN(C)C)nc23)cc1 [ZDR063, N-(2-((Dimethylamino)methyl)quinolin-8-yl)-4-methoxybenzenesulfonamide] | > 256 µg/mL | > 256 µg/mL | > 256 µg/mL | 0.25 µg/mL (≈ 0.673 µM) | > 256 µg/mL | > 256 µg/mL |
| CN(C)Cc1ccc2cccc(NS(=O)(=O)c3ccc(F)c(F)c3)c2n1 [ZDR338, N-(2-((Dimethylamino)methyl)quinolin-8-yl)-3,4-difluorobenzenesulfonamide] | > 256 µg/mL | > 256 µg/mL | 128 µg/mL (≈ 339 µM) | 0.0625 µg/mL (≈ 0.166 µM) | > 256 µg/mL | > 256 µg/mL |
| Cc1cccc(S(=O)(=O)Nc2cccc3ccc(CN(C)C)nc23)c1 [ZDR315, N-(2-((Dimethylamino)methyl)quinolin-8-yl)-3-methylbenzenesulfonamide] | > 256 µg/mL | > 256 µg/mL | > 256 µg/mL | 0.25 µg/mL (≈ 0.703 µM) | 256 µg/mL (≈ 720 µM) | > 256 µg/mL |
| Cc1nc(C)c(S(=O)(=O)Nc2cccc3ccc(CN(C)C)nc23)s1 [ZDR203, N-(2-((Dimethylamino)methyl)quinolin-8-yl)-2,4-dimethylthiazole-5-sulfonamide] | > 256 µg/mL | > 256 µg/mL | 256 µg/mL (≈ 680 µM) | 0.5 µg/mL (≈ 1.33 µM) | > 256 µg/mL | 64 µg/mL (≈ 170 µM) |
| O=S(=O)(NCc1ccc2cccc(NS(=O)(=O)c3ccc(C(F)(F)F)cc3)c2n1)c1ccccc1 [ZDR210, N-(2-(Phenylsulfonamidomethyl)quinolin-8-yl)-4-(trifluoromethyl)benzenesulfonamide] | > 256 µg/mL | > 256 µg/mL | > 256 µg/mL | 0.25 µg/mL (≈ 0.479 µM) | > 256 µg/mL | > 256 µg/mL |
| CN(C)Cc1ccc2cccc(NS(=O)(=O)c3cc(F)c(F)cc3F)c2n1 [ZDR337, N-(2-((Dimethylamino)methyl)quinolin-8-yl)-2,4,5-trifluorobenzenesulfonamide] | > 256 µg/mL | > 256 µg/mL | 256 µg/mL (≈ 647 µM) | 0.0625 µg/mL (≈ 0.158 µM) | > 256 µg/mL | > 256 µg/mL |

Second part, the compound after the results:

| MIC (E. coli ATCC 10596; [1]) | MIC (E. coli ATCC 10596; [2]) | MIC (S. uberis ATCC 19436; ATCC19436, No Zinc) | MIC (S. uberis ATCC 19436; ATCC19436, Zinc (50 μM)) | MIC (S. aureus ATCC 6538; ATCC6538, No Zinc) | MIC (S. aureus ATCC 6538; ATCC6538, Zinc (50 μM)) | Compound |
| --- | --- | --- | --- | --- | --- | --- |
| > 256 µg/mL | > 256 µg/mL | > 256 µg/mL | 0.125 µg/mL (≈ 0.305 µM) | > 256 µg/mL | > 256 µg/mL | CO/N=C/c1ccc2cccc(NS(=O)(=O)c3ccc(C(F)(F)F)cc3)c2n1 [ZDR126, (E)-N-(2-((Methoxyimino)methyl)quinolin-8-yl)-4-(trifluoromethyl)benzenesulfonamide] |
| > 256 µg/mL | 256 µg/mL (≈ 599 µM) | 64 µg/mL (≈ 150 µM) | 0.25 µg/mL (≈ 0.585 µM) | 64 µg/mL (≈ 150 µM) | > 256 µg/mL | O=S(=O)(Nc1cccc2ccc(CNCCF)nc12)c1ccc(C(F)(F)F)cc1 [ZDR099, N-(2-(((2-Fluoroethyl)amino)methyl)quinolin-8-yl)-4-(trifluoromethyl)benzenesulfonamide] |
| ≥ 256 µg/mL | > 256 µg/mL | 16 µg/mL (≈ 37.6 µM) | 0.5 µg/mL (≈ 1.18 µM) | 32 µg/mL (≈ 75.2 µM) | 32 µg/mL (≈ 75.2 µM) | O=S(=O)(Nc1cccc2ccc(CNCCO)nc12)c1ccc(C(F)(F)F)cc1 [ZDR031, N-(2-(((2-Hydroxyethyl)amino)methyl)quinolin-8-yl)-4-(trifluoromethyl)benzenesulfonamide] |
| > 256 µg/mL | > 256 µg/mL | 64 µg/mL (≈ 151 µM) | 0.125 µg/mL (≈ 0.295 µM) | 32 µg/mL (≈ 75.6 µM) | > 256 µg/mL | CCCNCc1ccc2cccc(NS(=O)(=O)c3ccc(C(F)(F)F)cc3)c2n1 [ZDR026, N-(2-((Propylamino)methyl)quinolin-8-yl)-4-(trifluoromethyl)-benzenesulfonamide] |
| 256 µg/mL (≈ 647 µM) | ≥ 256 µg/mL | 64 µg/mL (≈ 162 µM) | 0.25 µg/mL (≈ 0.632 µM) | 16 µg/mL (≈ 40.5 µM) | 8 µg/mL (≈ 20.2 µM) | CNCc1ccc2cccc(NS(=O)(=O)c3ccc(C(F)(F)F)cc3)c2n1 [ZDR024, N-(2-((Methylamino)methyl)quinolin-8-yl)-4-(trifluoromethyl)-benzenesulfonamide] |

From patent publication US11691949B2, “Quinoline sulfonamide compounds and their use as antibacterial agents” (OTAGO INNOVATION LIMITED, priority 2017, dated 2023)
